Patent US7262173B2, “Chemosensitizing with liposomes containing oligonucleotides” (Georgetown University, priority 1997, dated 2007)

What was measured:
Format in all cases: in vivo, Balb/c nu/nu mice
Raf-1 = Raf-1 expression in normal mouse tissues after i.v. ODN; details: i.v. 6 mg/kg daily for 5 days
Method: FIG. 7: Effects of intravenous administration of LE-ATG-AS raf ODN (SEQ ID NO:1) our Raf-1 expression in normal and tumor tissues. Raf-1 expression was examined in liver, kidneys and SQ-20B tumor xenograft of Balb/c nu/nu mice after i.v. injections of 6 mg/kg daily dose of LE-ATG-AS raf ODN (SEQ ID NO:1) (AS) or LE-ATG-S raf ODN (SEQ ID NO:3) (S) for five consecutive days. Control mice (C) received normal saline. Representative data showing Raf-1 expression in lysates normalized for protein content by immunoprecipitation and immunoblotting (top). Quantification data are shown as mean±s.d. from three mice (bottom).
Logarithmically growing SQ-20B cells were injected subcutaneously (2×10^6 cells) in the flank regions on both sides in male Balb/c nu/nu mice under mild anesthesia. Tumors were allowed to grow to a mean tumor volume of 115 mm^3 before initiation of ODN treatment. Two treatment routes were followed: intravenous and intratumoral. For intravenous delivery, mice were randomly divided into six groups. […]
For in vivo expression studies, tumor tissue and organs were homogenized in the cell lysis buffer using Polytron homogenizer (Westbury, N.Y., USA). Raf-1 expression was analyzed in tissue homogenates by immunoprecipitation and immunoblotting as described above.

[1] = Tissue distribution of raf ODN after i.v. injection; details: 30 mg/kg i.v., free ODN; data not shown
Method: FIG. 4: Tissue distribution profiles of LE-ATG-AS raf ODN (SEQ ID NO:1).
Male Balb/c nu/nu mice (Charles River, Raleigh, N.C., USA; 10–12 weeks old) were maintained in the Research Resources Facility of the Georgetown University according to accredited procedure, and fed purina chow and water ad libitum. […] At 5 min, 15 min, 30 min, 1 h, 2 h, 4 h, 8 h, 24 h and 48 h after injection, one animal in each group was bled from the retro-orbital sinus into heparinized tubes under anesthesia, and killed by cervical dislocation.
The extracts were loaded on to 20% polyacrylamide/3 M urea gels and electrophoresed in TBE buffer. […] The radiolabeled probe was generated by 5′-end-labeling of ATG-S′ raf ODN (SEQ ID NO:3) with γ^32-P-ATP using T4 polynucleotide kinase and purification over Chroma Spin-10 columns (Clontech, Palo Alto, Calif., and USA). […] The autoradiographs were scanned using a computer program (ImageQuant software, Molecular Dynamics, Sunnyvale, Calif., and USA), and the amounts of ATG-AS raf ODN (SEQ ID NO:1) in various samples were calculated by comparison to standards.

[2] = Plasma pharmacokinetics of raf ODN after i.v. injection; details: 30 mg/kg i.v.
Method: FIG. 3: The plasma concentration-time profile of LE-ATG-AS raf ODN (SEQ ID NO:1), 30 mg/kg LE-ATG-AS raf ODN (SEQ ID NO:1) (top panel) or TG-AS raf ODN (SEQ ID NO:1) (middle panel) was administered […]. in […] nu/nu mice. Blood samples were collected from retro-orbital sinus as indicated times after injection and the ODNs in plasma samples were extracted and analyzed by denaturing gel electrophoresis as explained in the experimental procedures. St standards prepared by spiking known amounts of ATG-AS raf ODN (SEQ ID NO:1) in blank plasma. Top panel: Samples were diluted before electrophoresis as follows: lane 1, 12×; lanes 2 and 3, 4×; lanes 4 and 5, 3.3×; lane 6, 2×; lane 7, 1.4×; lane 8, 1.3×; and lane 9, I×. […] Additional standards (1.4 to >2 log range) were used to determine ODN concentration over a 24 hour period (data not shown). Middle panel: Samples were diluted before loading as follows: lane 1, 4×, lanes 2 and 3, 2×, lanes 4, 5 and 6, I×; lane 7, 0.75×, lanes 8 and […], 0.6×. […]
The extracts were loaded on to 20% polyacrylamide/3 M urea gels and electrophoresed in TBE buffer. […] The autoradiographs were scanned using a computer program (ImageQuant software, Molecular Dynamics, Sunnyvale, Calif., and USA), and the amounts of ATG-AS raf ODN (SEQ ID NO:1) in various samples were calculated by comparison to standards.

In the case of “5′-GTG-CTCCATTGATGC-3′ (antisense GTGCTCCATTGATGC; DNA, linkages s1 o12 s1 (s phosphorothioate, o phosphodiester), methylation of C not given here) [ATG-AS raf ODN, antisense ODN to translation initiation site of human c-raf-1 cDNA; one terminal base linkage at each end phosphorothioate]”, the “inhibition of Raf-1 expression in normal tissues” value (Raf-1) is reported as “No inhibition”, the “only time at which intact ODN seen in various organs” value [1] is reported as 5 min and the plasma concentration ([2]; at 5 min) is reported as 9.75 µg/mL. The “only time at which intact ODN detectable in plasma” value ([2]; free ODN) was 5 min.
